Measurements published in ChEMBL document CHEMBL1146000, “Synthesis, in vitro evaluation, and intraocular pressure effects of water-soluble prodrugs of endocannabinoid noladin ether” (J Med Chem, 2003).

Experiments:
[1] = Distribution coefficients at 25 C in a 1-octanol-TRIS buffer; type: physicochemical
[2] = Half-life in 10% liver homogenate at 37 C (n = 3); type: ADME, tissue-based
[3] = Aqueous solubility of the phosphate in TRIS buffers at pH 7.4 at 37 C was determined; type: physicochemical; conditions: TRIS buffer
[4] = system: alkaline phosphatase; experiment: Half-life in alkaline phosphatase solution at 37 C (n = 2); type: ADME
[5] = Half-life in 4% cornea homogenate at 37 C (n = 3); type: ADME, tissue-based
[6] = Chemical stability in TRIS buffers at pH 7.4 at 37 C was determined; type: physicochemical; conditions: TRIS buffer
[7] = Chemical stability in phosphate buffers at pH 7.4 at 37 C was determined; type: physicochemical; conditions: phosphate buffer

Row | SMILES | logD [1] | half-life [2] [min] | solubility [3] [µg/mL] | half-life [4] [min] | half-life [5] [min] | half-life [6] [h] | half-life [7] [days]
1 | CCCCC/C=C\C/C=C\C/C=C\C/C=C\CCCCOC(COP(=O)(O)O)COP(=O)(O)O | 0.65 | 6.4 | > 5000 | 1.6 | 17.2 | – | –
2 | CCCCC/C=C\C/C=C\C/C=C\C/C=C\CCCCOC(CO)COP(=O)(O)O (stereo not drawn) | 1.98 | 7.1 | > 5000 | 4.6 | 18.1 | 216 | 17.9
3 | CCCCC/C=C\C/C=C\C/C=C\C/C=C\CCCCOC(CO)CO | – | – | < 0.1 | – | – | – | –
